Tests used:
[1] = tested on: DSS mouse model of ulcerative colitis; experiment: DSS mouse model of ulcerative colitis: Disease Activity Index, plasma and colon cytokines, colon histopathology; assay type: in vivo, mice; settings: for colon IL-15 level increased by DSS / colon KC level increased by DSS / colon RANTES level increased by DSS / layer to which the infiltration extended (extent of infiltration, colon histopathology) / amount of crypt damage (colon histopathology) / degree of inflammatory infiltrate (colon histopathology): colon collected day 7; for improvement (reduction) in the Disease Activity Index (DAI): mice given 2.5% DSS in drinking water for 6 days, NTX 1170 100 mg/kg QD PO, infliximab 5 mg/kg QD IP, tofacitinib 5 mg/kg BID PO
Procedure: (§1) Body weights, stool consistency and the presence of blood in the stool were measured over the 6 days and comprised the Disease Activity Index (DAI). On day 7 the study was terminated, and the colon and plasma were collected for cytokine measurements, histology evaluation and for pharmacokinetic (PK) analysis.

[2] = Pharmacokinetic (PK) analysis of terminal plasma and colon samples in DSS mice; assay type: in vivo; settings: 100 mg/kg QD PO
Procedure: as §1

[3] = plasma collected day 7, 2.5% DSS 6 days

## C[C@@H]1CCN(C(=O)CC#N)C[C@@H]1N(C)c1ncnc2[nH]ccc12 [tofacitinib]
[1]; 2.5% DSS 6 days
  colon IL-15 level increased by DSS: neither tofacitinib nor infliximab significantly reduced
  colon KC level increased by DSS: neither tofacitinib nor infliximab significantly reduced
  colon RANTES level increased by DSS: neither tofacitinib nor infliximab significantly reduced
  layer to which the infiltration extended (extent of infiltration, colon histopathology): reduced
[1]
  improvement (reduction) in the Disease Activity Index (DAI): 38%
[1]; [3]
  plasma G-CSF level upregulated by DSS: significantly reduced
  plasma MIG level upregulated by DSS: significantly reduced
  plasma Mip-1β level upregulated by DSS: significantly reduced
  plasma TNF-α level upregulated by DSS: significantly reduced

## infliximab
[1]; 2.5% DSS 6 days
  amount of crypt damage (colon histopathology): no significant effect
  colon IL-15 level increased by DSS: neither tofacitinib nor infliximab significantly reduced
  colon KC level increased by DSS: neither tofacitinib nor infliximab significantly reduced
  colon RANTES level increased by DSS: neither tofacitinib nor infliximab significantly reduced
  degree of inflammatory infiltrate (colon histopathology): no significant effect
  layer to which the infiltration extended (extent of infiltration, colon histopathology): no significant effect
[1]; [3]
  plasma G-CSF level upregulated by DSS: reduced
  plasma Mip-1β level upregulated by DSS: reduced
  plasma TNF-α level upregulated by DSS: reduced

## Cc1cccc(C)c1NC(=O)C[N+]1(Cc2ccccc2)CCCCC1.[Br-] [NTX-1170]
[1]; 2.5% DSS 6 days
  amount of crypt damage (colon histopathology): significantly reduced
  colon IL-15 level increased by DSS: significantly reduced
  colon KC level increased by DSS: significantly reduced
  colon RANTES level increased by DSS: significantly reduced
  degree of inflammatory infiltrate (colon histopathology): significantly reduced
  layer to which the infiltration extended (extent of infiltration, colon histopathology): significantly reduced
[1]
  improvement (reduction) in the Disease Activity Index (DAI): 60%
[1]; [3]
  plasma G-CSF level upregulated by DSS: significantly reduced
  plasma IP-10 level upregulated by DSS: significantly reduced
  plasma MIG level upregulated by DSS: significantly reduced
  plasma Mip-1β level upregulated by DSS: significantly reduced
  plasma TNF-α level upregulated by DSS: significantly reduced
[2]; mouse, colon and plasma, terminal samples, read-out: colon/plasma ratio
  Kp: > 3500
[2]; terminal colon sample
  level of compound in the colon: high levels
[2]; terminal plasma sample
  level of compound in the plasma: very low levels
